Test results taken from the METLIN SMRT retention time set (Domingo-Almenara et al. 2019).

Experiment: gradient 5% acetonitrile 3 min, to 50% in 2 min, to 85% in 15 min, held 3 min, 100 µL/min
Details: column: Zorbax Extend-C18 2.1 x 50 mm; eluents: water / acetonitrile, 0.1% formic acid
Method in brief: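 A Zorbax Extend-C18 column (2.1 × 50 mm, 1.8 μm) run at 100 μL/min with water and acetonitrile, both containing 0.1% formic acid, separated mixtures of ~100 pure standards. The HPLC was coupled to a quadrupole time-of-flight mass spectrometer operated in positive and negative ionization mode, with dead and dwell volumes of 40 μL and 900 μL. Each retention time was taken from a computationally picked adduct peak that was then manually inspected.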

| RP-LC retention time [s] | Structure (SMILES) |
| --- | --- |
| 732 | CCN1c2ccccc2C(=O)NC12CCN(C(=O)c1ccccc1OC)CC2 |
| 663 | CCN(CC)S(=O)(=O)c1ccc2c(c1)CC(C(=O)N1CCOCC1)N2C(C)=O (stereo not drawn) |
| 939 | CSc1cccc(NC(=O)Cn2cccc(-c3nc(-c4ccc(F)cc4)no3)c2=O)c1 |
| 740 | O=C(C1CC(=O)N(c2n[nH]c3cccc(F)c23)C1)N1CCN(c2ccc(F)cc2)CC1 (stereo not drawn) |
| 870 | O=C(NCC1CCCO1)C1CCN(c2ncccc2-c2nc(-c3ccccc3)no2)CC1 (stereo not drawn) |
| 660 | COc1ccc(C(=O)NC2CCN(c3ccc(=O)[nH]n3)C2)c(OC)n1 (stereo not drawn) |
| 925 | Cc1cc(NC(=O)c2ccccc2-c2nc(-c3ccccc3)no2)no1 |
| 828 | O=C([C@@H]1C[C@H](Oc2ccccc2)CN1C(=O)COc1ccccc1)N1CCCC1 |
| 1310 | CCc1ccccc1Nc1nc(-c2ccc(Cl)cc2)cs1 |
| 798 | CCc1noc(NC(C)=O)c1-c1ccc(C)c(S(=O)(=O)Nc2ccccc2F)c1 |
| 852 | Cc1oc(-c2ccn[nH]2)cc1S(=O)(=O)Nc1ccc(F)c(Cl)c1 |
| 560 | CN(CC(=O)N1CCOCC1)c1nc(C2CC2)nc2c1CCC2 |
| 952 | CC(C)(C)n1nc2c(c1NC(=O)c1nc3ccccc3s1)CSC2 |
| 995 | CC(C)Cn1c(=O)c2cc(C(=O)NCc3cccs3)nn2c2ccccc21 |
| 690 | Cc1ccc(Nc2c(-c3ccc(O)cc3)nc3ncccn23)cc1Cl |
| 960 | CCOC(=O)c1nc(N2CCN(c3cccc(OC)c3)CC2)c2c(C)noc2n1 |
| 759 | COC(=O)c1c(C)[nH]c(C(=O)N2CCCC(C(=O)NC3CCCCC3)C2)c1C (stereo not drawn) |
| 639 | Cc1nc(Nc2ccc(F)cn2)sc1C(=O)N1CCN(C2CCCCC2)CC1 |
| 690 | Cc1ccsc1CN1CC(Oc2ccc(-c3noc(C4CCOCC4)n3)cc2)C1 |
| 1110 | O=C(Cn1cccc1-c1nc(-c2ccc3c(c2)OCO3)no1)Nc1cc(F)ccc1Cl |
| 1070 | Cn1nccc1-c1cccc(-c2noc(-c3ccccc3F)n2)c1 |
| 608 | Cc1[nH]c(C(=O)N2CCCC(C(=O)NCCCN3CCOCC3)C2)c(C)c1C(=O)OC(C)C (stereo not drawn) |

| RP-LC retention time [s] | Structure (SMILES) |
| --- | --- |
| 959 | COc1ccc(NC(=O)Cn2cc(-c3ccccc3C)c(N3CCOCC3)n2)c(OC)c1 |
| 851 | CS(=O)(=O)Nc1ccc(C2(C(=O)NCc3cccs3)CCCCC2)cc1 |
| 780 | O=C(CSc1nnc(-c2cccnc2)o1)c1ccc(OC(F)F)cc1 |
| 690 | Cc1ccc2nc(-c3ccc(N4CCOCC4)cc3)c(Nc3ccc4c(c3)OCO4)n2c1 |
| 730 | Cn1nnc2cc(-c3noc(C4CCCO4)n3)ccc21 (stereo not drawn) |
| 747 | Clc1ccc2nc(Nc3ncccn3)nc(-c3ccccc3)c2c1 |
| 676 | Cc1ccc(C(=O)N2C[C@@H]3C[C@H]2C[C@@H]3NS(C)(=O)=O)cc1F |
| 735 | O=C(C1CCN(S(=O)(=O)c2ccc3[nH]c(=O)ccc3c2)CC1)N1CCN(c2ccccc2)CC1 |
| 834 | Cc1cc(C)c(C(=O)N2CCCC(C(=O)NCc3ccccc3Cl)C2)[nH]1 (stereo not drawn) |
| 712 | O=C(NC1CCCCCC1)C1CCN(c2cncnc2N2CCCCC2)CC1 |
| 1060 | O=c1ccc(-c2ccccc2)nn1CCc1nc(-c2ccc(Br)cc2)no1 |
| 748 | O=C(Cn1cc(S(=O)(=O)c2ccc(F)cc2)c2ccccc21)NC1CC1 |
| 778 | COc1ccc(Nc2cc(C(=O)N3CCC(C)CC3)nc3cc(OC)c(OC)cc23)cc1Cl |
| 930 | Clc1ccc(-c2nc3cnccn3c2Nc2ccc3c(c2)OCO3)cc1 |
| 702 | CN1C(=O)CCc2cc(NC(=O)Cc3cccs3)ccc21 |
| 973 | CCc1nn2c(CNS(=O)(=O)c3ccc(C)cc3)c(-c3ccccc3)nc2s1 |
| 735 | Cc1ccc2c(c1)N(C(=O)Cn1cc(-c3noc(-c4ccncc4)n3)nc1C)CCO2 |
| 629 | Cc1ccc(C)c(NC(=O)N2CCN(c3cnn4c(C)nnc4c3)CC2)c1 |
| 892 | Cc1cc(-n2c(C)nc3ccccc3c2=O)ccc1NC(=O)CCC1CCCC1 |
| 646 | CC(=O)c1ccc(NC(=O)c2nc(N3CCCC3)c3c(C)cc(C)nc3n2)cc1 |
| 726 | Cc1ccc(C)c(NC(=O)C2CCN(S(=O)(=O)c3c(C)[nH]c(C)c3C(=O)N3CCCC3)CC2)c1 |
| 658 | O=C(NCCc1ccccc1)NC1CCN(C(=O)N2C[C@H]3C[C@H](C2)[C@H]2CCCC(=O)N2C3)CC1 |

| RP-LC retention time [s] | Structure (SMILES) |
| --- | --- |
| 874 | COc1ccc(-c2nnc(-c3cccnc3N3CCN(C(=O)c4ccc(C#N)cc4)CC3)o2)cc1 |
| 752 | Cn1c(=O)n([C@H]2CCCN(C(=O)Nc3ccc(F)cc3F)C2)c2ncccc21 |
| 1170 | CC1CCN(C(=O)C2CCN(c3nc4ccc(-c5ccccc5F)nc4s3)CC2)CC1 |
| 1230 | CCOc1ccc(-c2nc(-c3cccc(-c4ccnn4C)c3)no2)cc1 |
| 765 | CNc1cccnc1OC1CCN(S(=O)(=O)c2ccc3c(c2)CCC3)C1 (stereo not drawn) |
| 645 | CN(CCCNC(=O)CN1C(=O)CCn2nc(-c3cn(C)c4ccccc34)cc21)Cc1ccccc1 |
| 1180 | O=C(Nc1ccc(F)c(Cl)c1)Nc1nccn(-c2ccc3c(c2)CCC3)c1=O |
| 680 | Cc1ccc(CC(=O)NC2CCN(c3nnc4cccc(C)n34)CC2)cc1 |
| 1050 | CNC(=O)c1c(NC(=O)c2cccc(OC)c2)sc2c1CCC2 |
| 1140 | Cc1cc(C)cc(-c2nc(-c3ccc4c(c3)oc(=O)n4C(C)C)no2)c1 |
| 601 | COc1ccc(-n2c(N)cc(=O)nc2SCC(=O)NC2CCCCC2)cc1 |
| 850 | CCN1C(=O)c2cccnc2Sc2cc(NC(=O)c3c(F)cccc3Cl)ccc21 |
| 1010 | C=CCn1c(=O)c2ccccc2n(Cc2nc(-c3cccc(OC)c3)no2)c1=O |
| 994 | O=C(NCCc1csc(-c2ccccc2)n1)[C@H]1CCCN1S(=O)(=O)c1cccc(Cl)c1 |
| 852 | CCOC(=O)c1[nH]c(C)c(CN(CC2CCCO2)C(=O)c2ccc(OC)cc2)c1C (stereo not drawn) |
| 820 | Cc1cc(C)c(-c2noc(C)n2)c(NC(=O)c2cccc(Br)c2)n1 |
| 951 | COCCCNC(=O)c1ccc(-c2nc(CN3CCc4ccccc43)c(C)o2)cc1 |
| 574 | Cc1noc(C)c1CNC(=O)c1ccc2[nH]ccc2c1 |
| 995 | CSc1ccccc1NC(=O)C(=O)NCC(C)(O)c1ccco1 (stereo not drawn) |
| 704 | CN(CC1CCOC1)C(=O)c1cc(F)ccc1Cl (stereo not drawn) |
| 718 | CCc1noc([C@@H]2CC(F)(F)CN2C(=O)Cn2cc(C)cn2)n1 |
| 573 | CCn1cc(CN2C[C@@H](COC)[C@H](c3ccccn3)C2)c(C)n1 |

| RP-LC retention time [s] | Structure (SMILES) |
| --- | --- |
| 917 | Cc1cc(C)cc(NC(=O)C(C)C2CCN(C(=O)Nc3ccc(F)cc3)CC2)c1 (stereo not drawn) |
| 1080 | CC(C)OC(=O)Cn1nc(-c2nc(-c3ccc(Cl)cc3)no2)ccc1=O |
| 614 | COCCNC(=O)CC1CCN(C(=O)c2[nH]c(C)c(C(=O)OC)c2C)CC1 |
| 999 | Cc1nc2cc(-c3noc(C(C)NC(=O)c4ccccc4)n3)ccc2n(C2CCCC2)c1=O (stereo not drawn) |
| 624 | COCCNC(=O)CSc1nc(-c2ccc(F)cc2)[nH]c1-c1ccccc1 |
| 790 | Cc1noc2nc(C)n(CC(=O)Nc3ccc(F)c(F)c3)c(=O)c12 |
| 925 | O=C(Nc1cc(-c2ccccc2)[nH]n1)c1ccc(Cl)cc1 |
| 1040 | CC(C)c1noc(-c2cc(=O)n(CC(=O)Nc3cc(F)ccc3F)c3ccccc23)n1 |
| 631 | COc1ccc(CCNC(=O)COc2cc(=O)n3ccccc3n2)cc1 |
| 1010 | CCNC(=O)c1c(C)c(-c2ccccc2)n(C)c1C |
| 612 | O=C(Nc1nc(CC(=O)N2CCN(c3ccccc3O)CC2)cs1)c1cnccn1 |
| 1130 | CCc1nc(-c2csc(S(=O)(=O)N3CCCC(C(=O)Nc4cc(C)ccc4OC)C3)c2)no1 (stereo not drawn) |
| 710 | O=C(NC1CC1)c1cc(-c2cccs2)n(C2CCS(=O)(=O)C2)n1 (stereo not drawn) |
| 644 | O=C(O)c1cn2ccnc(-c3ccccc3)c2n1 |
| 573 | CC(C)N(CC(=O)N1CCNCC1)C(=O)c1cccc(Br)c1 |
| 594 | CCNC(=O)c1cc(C)nc2c(C)cc(C)cc12 |
| 700 | Cc1ccccc1NC(=O)c1cnc2c(c1)c(=O)n(C)c(=O)n2-c1ccccc1 |
| 662 | COc1cc(NC(=O)CCc2c(C)nn3cnnc3c2C)cc(OC)c1 |
| 1000 | Cc1cccc(OCc2nc(CCN(C)C(=O)Nc3cc(F)ccc3F)no2)c1 |
| 728 | CC(=O)N1CCc2cc(N3CC(C(=O)Nc4ccccc4C(C)C)CC3=O)ccc21 (stereo not drawn) |
| 961 | Cc1ccc(CNC(=O)CN2C(=O)CCCc3cc(S(=O)(=O)N4CCC(C)CC4)ccc32)cc1 |

| Structure (SMILES) | RP-LC retention time [s] |
| --- | --- |
| O=C(O)c1nn(Cc2ccc(Cl)cc2Cl)c2ccccc12 | 1050 |
